From patent publication US20230365566A1, “HETEROCYCLIC AMIDES AND THEIR USE FOR MODULATING SPLICING” (REMIX THERAPEUTICS INC., priority 2020, published 2023)

How the values were obtained:
Assay type in all cases: cell-based
SMN2 CJ mRNA = assay: Gene panel canonical junction qPCR assay, SMN2; conditions: protocol of Example 42, read-out: SMN2 IC50 (decrease in CJ mRNA levels)
Summary of the method: (§1)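 A673 or K562 cells treated 24 h at 37° C with 11-point 3-fold dilutions (top 10 uM, DMSO ≤0.25%). Canonical junction mRNA quantified by RT-qPCR, normalized to GAPDH, GUSB or PPIA and DMSO control (2^(−ΔΔCt)). 4-parameter logistic fit gives IC50 for CJ decrease.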

[1] = tested on: HTT mRNA alternative junction (AJ); assay: Splicing RT-qPCR assay, increase of HTT alternative junction (AJ) mRNA; conditions: A673 or K562 cells, 24 hours compound treatment, concentration having 50% response in AJ increase
Summary of the method: (§2)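 A673 (DMEM, 10% FBS) or K562 (IMDM, 10% FBS) cells exposed 24 h at 37 °C to an 11-point 3-fold series, top dose 10 uM final, DMSO ≤0.25%. Lysates assayed by RT-qPCR for HTT CJ and AJ, normalized to GAPDH, GUSB or PPIA and DMSO control via 2^(−ΔΔCt).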

Target C CJ mRNA = assay: Gene panel canonical junction qPCR assay, Target C; conditions: protocol of Example 42, read-out: Target C IC50 (decrease in CJ mRNA levels)
Summary of the method: as §1

HTT CJ mRNA = assay: Gene panel canonical junction qPCR assay, HTT; conditions: protocol of Example 42, read-out: HTT IC50 (decrease in CJ mRNA levels)
Summary of the method: as §1

[2] = tested on: HTT mRNA canonical junction (CJ); assay: Splicing RT-qPCR assay, decrease of HTT canonical junction (CJ) mRNA; conditions: A673 or K562 cells, 24 hours compound treatment, concentration having 50% response in CJ decrease
Summary of the method: as §2

| SMILES | IC50 (SMN2 CJ mRNA) [nM] | AC50 [1] [nM] | IC50 (Target C CJ mRNA) [nM] | IC50 (HTT CJ mRNA) [nM] | AC50 [2] [nM] |
| --- | --- | --- | --- | --- | --- |
| Cc1cn2cc(NC(=O)c3ccc(N4CCNCC4)c4cn(C)nc34)cc(C)c2n1 [Compound 238] | < 100 | 1000 to 10000 | > 10000 | 1000 to 10000 | 1000 to 10000 |
| CCC1CN(c2ccc(C(=O)Nc3cc(F)c4nc(C)cn4c3)c3nn(C)cc23)CCN1 (stereo not shown) [Compound 239] | < 100 | 100 to 1000 | 1000 to 10000 | 100 to 1000 | 100 to 1000 |
| Cc1cn2cc(NC(=O)c3ccc(N4CCNC(C)(C)C4)c4cn(C)nc34)cc(F)c2n1 [Compound 240] | < 100 | 100 to 1000 | 1000 to 10000 | 100 to 1000 | 100 to 1000 |
| Cc1cn2cc(NC(=O)c3ccc(N4CCNC5(CC5)C4)c4cn(C)nc34)cc(F)c2n1 [Compound 241] | < 100 | 1000 to 10000 | 1000 to 10000 | 1000 to 10000 | 1000 to 10000 |
| Cc1cn2cc(NC(=O)c3ccc(N4CC5(CNC5)C4)c4cn(C)nc34)cc(F)c2n1 [Compound 242] | < 100 | 1000 to 10000 | 1000 to 10000 | 100 to 1000 | 100 to 1000 |
| Cc1cn2cc(NC(=O)c3ccc(N4CC5(CN(C)C5)C4)c4cn(C)nc34)cc(F)c2n1 [Compound 243] | < 100 | 100 to 1000 | 1000 to 10000 | 100 to 1000 | 100 to 1000 |
| Cc1cn2cc(NC(=O)c3ccc(N(C)C4CC(C)(C)NC(C)(C)C4)c4cn(C)nc34)cc(F)c2n1 [Compound 244] | 100 to 1000 | > 10000 | > 10000 | > 10000 | > 10000 |
| Cc1cn2cc(NC(=O)c3ccc(N(C)C4CCN(C)CC4)c4cn(C)nc34)cc(F)c2n1 [Compound 245] | < 100 | 100 to 1000 | 100 to 1000 | 100 to 1000 | 100 to 1000 |
| Cc1cn2cc(NC(=O)c3ccc(N4CCNCC4)c4cn(C)nc34)ncc2n1 [Compound 246] | < 100 | 1000 to 10000 | > 10000 | 1000 to 10000 | 1000 to 10000 |
| Cc1cn2nc(NC(=O)c3ccc(N4CCNCC4)c4cn(C)nc34)cc2c(C)n1 [Compound 247] | > 10000 | > 10000 | > 10000 | > 10000 | > 10000 |
| Cc1cn2cc(NC(=O)c3ccc(N4CCC(NC(C)(C)C)C4)c4cn(C)nc34)cc(F)c2n1 (stereo not shown) [Compound 249] | < 100 | > 10000 | > 10000 | > 10000 | > 10000 |
| Cc1cn2cc(NC(=O)c3ccc(N4CCN5CCCC5C4)c4cn(C)nc34)cc(F)c2n1 (stereo not shown) [Compound 250] | < 100 | 100 to 1000 | 1000 to 10000 | 100 to 1000 | 100 to 1000 |
| Cc1cn2cc(NC(=O)c3ccc(N4CCC(N(C)C)CC4)c4cn(C)nc34)cc(C)c2n1 [Compound 251] | < 100 | 100 to 1000 | 1000 to 10000 | 100 to 1000 | 100 to 1000 |
| CCNC1CCN(c2ccc(C(=O)Nc3cc(F)c4nc(C)cn4c3)c3nn(C)cc23)CC1 [Compound 252] | < 100 | 100 to 1000 | 100 to 1000 | 100 to 1000 | 100 to 1000 |
| Cc1cn2nc(NC(=O)c3ccc(N4CCNCC4)c4nn(C)cc34)nc2c(C)n1 [Compound 253] | 1000 to 10000 | > 10000 | > 10000 | > 10000 | > 10000 |
| Cc1cn2cc(NC(=O)c3ccc(N4C[C@H]5CC[C@@H](C4)N5)c4cc(C)oc34)cc(F)c2n1 [Compound 255] | < 100 | 1000 to 10000 | > 10000 | 1000 to 10000 | 1000 to 10000 |
| Cc1cn2cc(NC(=O)c3ccc(C4CCN(C)CC4)c4cc(C)oc34)cc(F)c2n1 [Compound 256, N-[8-fluoro-2-methylimidazo[1,2-a]pyridin-6-yl]-2-methyl-4-(1-methylpiperidin-4-yl)-1-benzofuran-7-carboxamide] | < 100 | 1000 to 10000 | > 10000 | 1000 to 10000 | 1000 to 10000 |
| CCN1CCC(c2ccc(C(=O)Nc3cc(F)c4nc(C)cn4c3)c3oc(C)cc23)CC1 [Compound 257, 4-(1-ethylpiperidin-4-yl)-N-[8-fluoro-2-methylimidazo[1,2-a]pyridin-6-yl]-2-methyl-1-benzofuran-7-carboxamide] | < 100 | 1000 to 10000 | > 10000 | 1000 to 10000 | 1000 to 10000 |
| Cc1cn2cc(NC(=O)c3ccc(N4CCC(N(C)C)C4)c4cn(C)nc34)cc(F)c2n1 (stereo not shown) [Compound 258] | < 100 | 100 to 1000 | 1000 to 10000 | 1000 to 10000 | 1000 to 10000 |
| Cc1cn2cc(NC(=O)c3ccc(N4CCC(NC(C)(C)C)CC4)c4cn(C)nc34)cc(F)c2n1 [Compound 259] | < 100 | 1000 to 10000 | 1000 to 10000 | 1000 to 10000 | 1000 to 10000 |
| Cc1cn2cc(NC(=O)c3ccc(N4C[C@H]5CC[C@@H](C4)N5)c4cn(C)nc34)cc(F)c2n1 [Compound 260] | < 100 | 100 to 1000 | > 10000 | 100 to 1000 | 100 to 1000 |
| Cc1cc2c(N3CCNCC3)ccc(C(=O)Nc3ccc4cn(C)nc4c3)c2o1 [Compound 261, 2-methyl-N-(2-methylindazol-6-yl)-4-(piperazin-1-yl)-1-benzofuran-7-carboxamide] | 1000 to 10000 | 1000 to 10000 | > 10000 | 1000 to 10000 | 1000 to 10000 |
| Cc1cn2cc(NC(=O)c3ccc(N4CCNCC4)c4cc(C)oc34)c(C)cc2n1 [Compound 262] | < 100 | > 10000 | > 10000 | > 10000 | > 10000 |
| Cc1cn2cc(NC(=O)c3ccc(N4CCNCC4)c4cc(C)oc34)ncc2n1 [Compound 263] | < 100 | 1000 to 10000 | 1000 to 10000 | 1000 to 10000 | 1000 to 10000 |
| Cc1cn2nc(NC(=O)c3ccc(N4CCNCC4)c4cc(C)oc34)nc2c(C)n1 [Compound 264] | > 10000 | > 10000 | > 10000 | > 10000 | > 10000 |
| Cc1cn2nc(NC(=O)c3ccc(N4CCNCC4)c4cc(C)oc34)cc2c(C)n1 [Compound 265] | 1000 to 10000 | > 10000 | > 10000 | > 10000 | > 10000 |
| Cc1cn2cc(NC(=O)c3ccc(N4CCNCC4)c4cc(C)oc34)cc(Cl)c2n1 [Compound 266] | < 100 | 1000 to 10000 | > 10000 | 1000 to 10000 | 1000 to 10000 |
| Cc1cn2cc(NC(=O)c3ccc(N4CCNCC4)c4cc(C)oc34)cc(C)c2n1 [Compound 267] | < 100 | 1000 to 10000 | > 10000 | > 10000 | > 10000 |
| Cc1cc2c(N3CCNCC3)ccc(C(=O)Nc3cn[nH]c3)c2o1 [Compound 268] | > 10000 | > 10000 | > 10000 | > 10000 | > 10000 |
